For 36 compounds, inhibition and IC50 results are on record in ChEMBL document CHEMBL5038646, “Structure-Activity Relationship Studies of New Sinapic Acid Phenethyl Ester Analogues Targeting the Biosynthesis of 5-Lipoxygenase Products: The Role of Phenolic Moiety, Ester Function, and Bioisosterism” (J Nat Prod, 2022).

Calls of active or inactive are those of the source. The calls are words filed in the database; no cut-off is given here.

The target of test [1] is T1, Polyunsaturated fatty acid 5-lipoxygenase (Homo sapiens) (UniProt P09917).
T1 sequence (whole entry): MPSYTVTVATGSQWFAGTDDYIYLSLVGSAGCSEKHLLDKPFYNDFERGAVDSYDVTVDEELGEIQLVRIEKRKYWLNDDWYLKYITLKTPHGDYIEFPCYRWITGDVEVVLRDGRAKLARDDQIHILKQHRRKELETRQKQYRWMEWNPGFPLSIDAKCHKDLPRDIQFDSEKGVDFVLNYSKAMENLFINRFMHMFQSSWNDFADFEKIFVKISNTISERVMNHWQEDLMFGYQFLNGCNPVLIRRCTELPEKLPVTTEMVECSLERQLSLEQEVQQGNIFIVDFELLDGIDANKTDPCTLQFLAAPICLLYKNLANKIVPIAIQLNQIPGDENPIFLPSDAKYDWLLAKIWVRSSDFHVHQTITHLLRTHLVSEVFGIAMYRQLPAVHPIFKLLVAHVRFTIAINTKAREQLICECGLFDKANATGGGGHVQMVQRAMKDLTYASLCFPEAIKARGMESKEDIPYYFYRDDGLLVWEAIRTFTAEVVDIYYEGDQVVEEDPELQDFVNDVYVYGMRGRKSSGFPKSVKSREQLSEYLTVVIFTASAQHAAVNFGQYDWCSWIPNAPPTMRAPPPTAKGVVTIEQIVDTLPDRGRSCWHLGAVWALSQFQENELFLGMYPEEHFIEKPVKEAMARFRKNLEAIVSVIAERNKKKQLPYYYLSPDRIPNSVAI
Kind of test: Inhibition of 5-LO in A23187-stimulated human HEK293 cells assessed as reduction in 5-LO product level at 1 uM preincubated for 5 mins followed by A23187, arachidonic acid addition and measured after 15 mins by RP-HPLC analysis relative to control. Format: cell-based.

The target of test [2] is T2, Polyunsaturated fatty acid 5-lipoxygenase (Homo sapiens, UniProt P09917).
T2 sequence (P09917 whole entry): T1 sequence (whole entry)
The experiment in a line: Inhibition of 5-LO in thapsigargin stimulated human PMNL cells assessed as reduction in 5-LO product level preincubated for 5 mins followed by thapsigargin addition and measured after 15 mins by RP-HPLC analysis. It counts as cell-based.

As usually defined, the IC50 is the concentration that gives 50% inhibition. For `COc1cc(/C=C/C(=O)OCCc2cccc(F)c2)cc(OC)c1O`, in test [1], the inhibition entry was “Active”. Besides, the concentration for half-maximal inhibition (IC50) in test [2] was found to be 230 nM.

For the compound `COc1cc(/C=C/C(=O)OCCc2ccc(C(F)(F)F)cc2)cc(OC)c1O`, the inhibition result in test [1] was “Active”.

Regarding `COc1cc(/C=C/C(=O)OCCc2ccccc2C(F)(F)F)cc(OC)c1O`, the inhibition result in test [1] is “Active”. Moreover, the IC50 in test [2] came out at 350 nM.

`COc1cc(C(=O)OCCc2ccccc2)cc(OC)c1O`: the inhibition result in test [1] was “inactive”.

Take `COc1cc(/C=C/c2nc(CCc3ccccc3)no2)cc(OC)c1O`: the inhibition result in test [1] was “Active”. The half-inhibitory concentration (IC50) in test [2] worked out at 270 nM.

With `COc1cc(/C=C/C(=O)OCCc2ccccc2F)cc(OC)c1O`, the inhibition entry in test [1] is “Active”. For the same compound, in test [2], the IC50 was 240 nM.

Take `COc1cc(/C=C/C(=O)CCc2ccccc2)cc(OC)c1O`: in test [1], the inhibition result is “Active”.

For the compound `COc1cc(/C=C/COCc2ccccc2)cc(OC)c1O`, in test [1], the inhibition result was “Active”. Moreover, in test [2], the 50% inhibitory concentration (IC50) was 1100 nM.

`COc1cc(/C=C/C(=O)NCCc2ccccc2)cc(OC)c1O`: in test [1], the inhibition entry was “inactive”. Also, in test [2], the concentration for half-maximal inhibition (IC50) came to 960 nM.

For the compound `COc1cc(/C=C/C(=O)OCCc2ccc(C)cc2)cc(OC)c1O`, the inhibition entry in test [1] is “Active”.

For the compound `COc1cc(/C=C/C(=O)OCCC2CCCCC2)cc(OC)c1O`, the inhibition entry in test [1] was “Active”.

`COC(=O)/C=C/c1cc(OC)c(O)c(OC)c1`: the inhibition entry in test [1] is “inactive”.

In the case of `COc1cc(/C=C/C(=O)OCCc2ccc(F)cc2)cc(OC)c1O`, the inhibition entry in test [1] was “Active”.

Turning to `COc1cc(CCC(=O)CCc2ccccc2)cc(OC)c1O`, the inhibition result in test [1] was “Active”. Further, in test [2], the IC50 worked out at 420 nM.

As to `COc1cc(/C=C/C(=O)OCCc2ccccc2C)cc(OC)c1O`, the inhibition entry in test [1] was “Active”. Moreover, the half-inhibitory concentration (IC50) in test [2] came to 240 nM.

`COc1ccc(OC)c(/C=C/C(=O)OCCc2ccccc2)c1`: the inhibition entry in test [1] was “inactive”.

As to `COc1cc(/C=C/C(=O)OCCc2ccccc2)cc(OC)c1O`, the inhibition result in test [1] is “Active”.

For the compound `COc1cccc(CCOC(=O)/C=C/c2cc(OC)c(O)c(OC)c2)c1`, the inhibition result in test [1] is “Active”. Further, the IC50 in test [2] was 210 nM.

`COc1cccc(/C=C/C(=O)OCCc2ccccc2)c1OC`: the inhibition result in test [1] was “inactive”.

Regarding `COc1cc(/C=C/C(=O)OCCc2cccc(C)c2)cc(OC)c1O`, the inhibition entry in test [1] is “Active”. Further, the IC50 in test [2] is 200 nM.

Consider `COc1cc(/C=C/C(=O)OCCc2cccc(C(F)(F)F)c2)cc(OC)c1O`, for which the inhibition result in test [1] is “Active”. In test [2], the half-maximal inhibitory concentration (IC50) worked out at 200 nM.

`COc1ccccc1CCOC(=O)/C=C/c1cc(OC)c(O)c(OC)c1`: the inhibition entry in test [1] was “Active”. The IC50 in test [2] came out at 250 nM.

Regarding `COc1cc(/C=C/C(=O)OCCCc2ccccc2)cc(OC)c1O`, in test [1], the inhibition result is “Active”. Further, in test [2], the IC50 was 340 nM.

Regarding `COc1cc(/C=C/COCCCc2ccccc2)cc(OC)c1O`, the inhibition entry in test [1] is “Active”. In test [2], the IC50 came to 560 nM.

Turning to `COc1cc(CCC(=O)OCCc2ccccc2)cc(OC)c1O`, in test [1], the inhibition result is “Active”. For the same compound, the concentration for half-maximal inhibition (IC50) in test [2] came to 590 nM.

With `COc1cc(/C=C/c2nc(Cc3ccccc3)no2)cc(OC)c1O`, in test [1], the inhibition entry is “Active”. Moreover, the IC50 in test [2] was 300 nM.

`COc1ccc(CCOC(=O)/C=C/c2cc(OC)c(O)c(OC)c2)cc1`: the inhibition result in test [1] is “Active”.

Regarding `COc1cc(/C=C/C(=O)OCCc2ccccc2)cc(OC)c1OC`, the inhibition result in test [1] was “inactive”.

Consider `COc1cc(/C=C/C(=O)OCCc2ccccc2)cc(OC)c1`, for which the inhibition entry in test [1] was “inactive”.

`COc1cc(/C=C/C(=O)OC(C)C)cc(OC)c1O`: the inhibition entry in test [1] is “inactive”.

For the compound `CC(c1cc2ccccc2s1)N(O)C(N)=O` (stereo not given), the inhibition entry in test [1] was “Active”.

Take `COc1cc(CC(=O)OCCc2ccccc2)cc(OC)c1O`: the inhibition entry in test [1] was “inactive”. In addition, the IC50 in test [2] is 1100 nM.

Turning to `CCCOC(=O)/C=C/c1cc(OC)c(O)c(OC)c1`, the inhibition result in test [1] was “Active”. In addition, in test [2], the IC50 was found to be 710 nM.

For `C#CCOC(=O)/C=C/c1cc(OC)c(O)c(OC)c1`, the inhibition result in test [1] is “Active”.

Consider `COc1cc(/C=C/C(=O)OCCc2ccccc2)cc(OC)c1OC(C)=O`, for which the inhibition result in test [1] is “Active”. Further, the IC50 in test [2] is 270 nM.

With `CCOC(=O)/C=C/c1cc(OC)c(O)c(OC)c1`, the inhibition result in test [1] was “inactive”.
